# Assays:
# [1] = test system: Jily; assay: MTS proliferation assay, Jily; assay type: cell-based; conditions: 72 h incubation, read-out: MTS proliferation assay IC 50 Jily
# Experimental: (§1) Cell lines are cultured in RPMI-1640 tissue culture medium containing either 5% or 10% fetal calf serum, 0.05 mM 2-mercaptoethanol, 2 mM glutamine and penicillin/streptomycin 50 μg/ml (complete medium) (Sigma, Buchs, Switzerland). General growth conditions are 37° C. and 7.5% CO2.
# (§2) The assay is performed in 96 well tissue culture plates. The cells (range: 1.5*10^3-10^4) are seeded out in 80 μl complete medium 24 h prior to compound treatment. The test compounds are added in 20 μl complete medium containing max 5% DMSO. The final compound concentrations in the assays are 10 μM, 3 μM, 1 μM and 0.3 μM, respectively. The assay plates are incubated for 72 h at culture conditions. The MTS reagent is prepared according to the manufacturer's protocol (Promega G1111). 20 μl MTS reagent are added to each well, the assay plates are quickly spun and incubated for another 3 h at culture conditions. Subsequently, the plates are shortly shaked and absorption measured with a microplate-reader at 492 nm.
# [2] = test system: HT1080; assay: MTS proliferation assay, HT1080; assay type: cell-based, human; conditions: HT1080, 72 h incubation; read-out: MTS proliferation assay IC 50 HT1080
# Experimental: as §1
# The following human cell lines (either EGFP transfected or not) are being used: HeLa (ATCC: CCL-2), KB (ATCC: CCL-17), MCF7 (ATCC: HTB-22), SK-BR-3 (ATCC: HTB-30), SK-Mel 1 (ATCC: HTB-67), SK-Mel 28 (ATCC: HTB-72), PC-3 (ATCC: CRL-1435), SW 480 (ATCC: CCL-228), NCl-H460 (ATCC: HTB-177), NCl-H1792 (ATCC: CRL-5895), HT1080 (ATCC: CCL-21), Jurkat (ATCC: TIB-152), Ramos (ATCC: CRL-1596), Raji (ATCC: CCL-86), H9 (ATCC: HTB-176), Hut78 (ATCC: TIB-161), K562 (ATCC: CCL 243), HL-60 (ATCC: CCL 240), U-87MG (ATCC: HTB-14), HepG2 (ATCC: HB-8065), U-2 OS (ATCC: HTB-96), Saos-2 (ATCC: HTB-85), U937 (ATCC: CRL 1593), Hs 578T (ATCC: HTB 126), HBL-100 (ATCC: HTB 124), Molt-4 (ATCC: CRL 1582).
# as §2
# [3] = test system: HeLa; assay: MTS proliferation assay, HeLa; assay type: cell-based, human; conditions: 72 h incubation, read-out: MTS proliferation assay IC 50 HeLa
# Outline: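 Human lines, EGFP-transfected or not, grow in RPMI-1640 plus 5% or 10% FCS and 2-mercaptoethanol. They receive test compound for 72 h at final concentrations of 10, 3, 1 and 0.3 μM, and MTS conversion is measured at 492 nm.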
# [4] = test system: MRC5; assay: MTS proliferation assay, MRC5; assay type: cell-based; conditions: MRC5, 72 h incubation; read-out: MTS proliferation assay IC 50 MRC5
# Outline: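 Seed cells in complete RPMI-1640 medium and allow 24 h attachment. Add compounds to final 10 μM, 3 μM, 1 μM or 0.3 μM and incubate 72 h at 37° C. Add MTS, incubate 3 h more, then measure absorption at 492 nm.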
# [5] = test system: adherent cells or suspension cells; assay: Hoechst 33342 nuclear staining (fraction of apoptotic nuclei); assay type: cell-based; design: key: 0 relating to no activity; 1 relating to weak activity comprising less than 70% of the cells; score 2 relating to strong activity comprising more than 70% of the cells
IC50 [2],IC50 [3],SMILES,IC50 [1],IC50 [4],"Hoechst 33342 nuclear staining score ([5]; H460, conc 0.01 μm)","Hoechst 33342 nuclear staining score ([5]; H460, conc 0.1 μm)","Hoechst 33342 nuclear staining score ([5]; H460, conc 1 μm)","Hoechst 33342 nuclear staining score ([5]; HeLa, conc 0.01 μm)","Hoechst 33342 nuclear staining score ([5]; HeLa, conc 0.1 μm)","Hoechst 33342 nuclear staining score ([5]; HeLa, conc 1 μm)","Hoechst 33342 nuclear staining score ([5]; Jily, conc 0.01 μm)","Hoechst 33342 nuclear staining score ([5]; Jily, conc 0.1 μm)","Hoechst 33342 nuclear staining score ([5]; Jily, conc 1 μm)","Hoechst 33342 nuclear staining score ([5]; Jurkat, conc 0.01 μm)","Hoechst 33342 nuclear staining score ([5]; Jurkat, conc 0.1 μm)","Hoechst 33342 nuclear staining score ([5]; Jurkat, conc 1 μm)","Hoechst 33342 nuclear staining score ([5]; MRC5, conc 0.01 μm)","Hoechst 33342 nuclear staining score ([5]; MRC5, conc 0.1 μm)","Hoechst 33342 nuclear staining score ([5]; MRC5, conc 1 μm)","Hoechst 33342 nuclear staining score ([5]; PBLs, conc 0.01 μm)",further results
10 to 100 nM,10 to 100 nM,Cc1ccc(OCn2c(-c3nonc3N)nc3ccccc32)cc1C [Example 101],10 to 100 nM,10 to 100 nM,0,1 (1 relating to weak activity comprising less than 70% of the cells),2 (score 2 relating to strong activity comprising more than 70% of the cells),0,1 (1 relating to weak activity comprising less than 70% of the cells),2 (score 2 relating to strong activity comprising more than 70% of the cells),0,1 (1 relating to weak activity comprising less than 70% of the cells),2 (score 2 relating to strong activity comprising more than 70% of the cells),0,2 (score 2 relating to strong activity comprising more than 70% of the cells),2 (score 2 relating to strong activity comprising more than 70% of the cells),0,1 (1 relating to weak activity comprising less than 70% of the cells),1 (1 relating to weak activity comprising less than 70% of the cells),0,"Hoechst 33342 nuclear staining score ([5]; PBLs, conc 0.1 μm): 0; Hoechst 33342 nuclear staining score ([5]; PBLs, conc 1 μm): 0"
100 to 1000 nM,100 to 1000 nM,CCc1ccc(C(=O)Cn2c(-c3nonc3N)nc3ccccc32)cc1 [Example 55],10 to 100 nM,100 to 1000 nM,0,0,2 (score 2 relating to strong activity comprising more than 70% of the cells),0,0,2 (score 2 relating to strong activity comprising more than 70% of the cells),0,0,2 (score 2 relating to strong activity comprising more than 70% of the cells),0,1 (1 relating to weak activity comprising less than 70% of the cells),2 (score 2 relating to strong activity comprising more than 70% of the cells),0,0,0,0,"Hoechst 33342 nuclear staining score ([5]; PBLs, conc 0.1 μm): 0; Hoechst 33342 nuclear staining score ([5]; PBLs, conc 1 μm): 0"
> 1000 nM,100 to 1000 nM,Nc1nonc1-c1nc2ccccc2n1CC(=O)c1cc(F)ccc1F [Example 71],100 to 1000 nM,> 1000 nM,0,0,0,0,0,0,0,0,1 (1 relating to weak activity comprising less than 70% of the cells),0,0,2 (score 2 relating to strong activity comprising more than 70% of the cells),0,0,0,0,"Hoechst 33342 nuclear staining score ([5]; PBLs, conc 0.1 μm): 0; Hoechst 33342 nuclear staining score ([5]; PBLs, conc 1 μm): 0"
100 to 1000 nM,100 to 1000 nM,Nc1nonc1-c1nc2ccccc2n1COc1cccc(C(F)(F)F)c1 [Example 103],10 to 100 nM,100 to 1000 nM,0,0,2 (score 2 relating to strong activity comprising more than 70% of the cells),0,0,2 (score 2 relating to strong activity comprising more than 70% of the cells),0,0,2 (score 2 relating to strong activity comprising more than 70% of the cells),0,1 (1 relating to weak activity comprising less than 70% of the cells),2 (score 2 relating to strong activity comprising more than 70% of the cells),0,0,1 (1 relating to weak activity comprising less than 70% of the cells),0,"Hoechst 33342 nuclear staining score ([5]; PBLs, conc 0.1 μm): 0; Hoechst 33342 nuclear staining score ([5]; PBLs, conc 1 μm): 0"
10 to 100 nM,10 to 100 nM,Cc1ccc(C(=O)Cn2c(-c3nonc3NCCC#N)nc3ccccc32)cc1C [Example 54],10 to 100 nM,10 to 100 nM,0,2 (score 2 relating to strong activity comprising more than 70% of the cells),2 (score 2 relating to strong activity comprising more than 70% of the cells),0,2 (score 2 relating to strong activity comprising more than 70% of the cells),2 (score 2 relating to strong activity comprising more than 70% of the cells),1 (1 relating to weak activity comprising less than 70% of the cells),2 (score 2 relating to strong activity comprising more than 70% of the cells),2 (score 2 relating to strong activity comprising more than 70% of the cells),1 (1 relating to weak activity comprising less than 70% of the cells),2 (score 2 relating to strong activity comprising more than 70% of the cells),2 (score 2 relating to strong activity comprising more than 70% of the cells),0,2 (score 2 relating to strong activity comprising more than 70% of the cells),2 (score 2 relating to strong activity comprising more than 70% of the cells),0,"Hoechst 33342 nuclear staining score ([5]; PBLs, conc 0.1 μm): 0; Hoechst 33342 nuclear staining score ([5]; PBLs, conc 1 μm): 0"

# — patent USRE42890E1, “Furazanobenzimidazoles” (Basilea Pharmaceutica AG, priority 2003, dated 2011)
